The target of the assay is CFTR-mediated chloride transport (Homo sapiens, UniProt P13569). It counts as cell-based. The following applies: enteroid cells incubated with test compound 18-24 hours, acute 10 μM forskolin and 300 nM Compound III; for Max. Activity: % of chloride transport with 3 μM Compound A, 3 μM Compound II and 300 nM acute Compound III triple combination control. In outline:
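Human intestinal enteroid cells incubated with compound 18–24 h at 37° C., then membrane potential dye (FLIPR) read 15 min after chloride-free stimulation with 10 μM forskolin, 100 μM IBMX and 300 nM Compound III. AUC expressed as % of triple-combination control (3 μM Compound A, 3 μM Compound II, 300 nM Compound III).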

Structures are written as SMILES. pEC50: −log10 of the molar value. Bounds are passed on as bounds.

CFTR-mediated chloride transport, sequence (P13569 whole entry, looked up): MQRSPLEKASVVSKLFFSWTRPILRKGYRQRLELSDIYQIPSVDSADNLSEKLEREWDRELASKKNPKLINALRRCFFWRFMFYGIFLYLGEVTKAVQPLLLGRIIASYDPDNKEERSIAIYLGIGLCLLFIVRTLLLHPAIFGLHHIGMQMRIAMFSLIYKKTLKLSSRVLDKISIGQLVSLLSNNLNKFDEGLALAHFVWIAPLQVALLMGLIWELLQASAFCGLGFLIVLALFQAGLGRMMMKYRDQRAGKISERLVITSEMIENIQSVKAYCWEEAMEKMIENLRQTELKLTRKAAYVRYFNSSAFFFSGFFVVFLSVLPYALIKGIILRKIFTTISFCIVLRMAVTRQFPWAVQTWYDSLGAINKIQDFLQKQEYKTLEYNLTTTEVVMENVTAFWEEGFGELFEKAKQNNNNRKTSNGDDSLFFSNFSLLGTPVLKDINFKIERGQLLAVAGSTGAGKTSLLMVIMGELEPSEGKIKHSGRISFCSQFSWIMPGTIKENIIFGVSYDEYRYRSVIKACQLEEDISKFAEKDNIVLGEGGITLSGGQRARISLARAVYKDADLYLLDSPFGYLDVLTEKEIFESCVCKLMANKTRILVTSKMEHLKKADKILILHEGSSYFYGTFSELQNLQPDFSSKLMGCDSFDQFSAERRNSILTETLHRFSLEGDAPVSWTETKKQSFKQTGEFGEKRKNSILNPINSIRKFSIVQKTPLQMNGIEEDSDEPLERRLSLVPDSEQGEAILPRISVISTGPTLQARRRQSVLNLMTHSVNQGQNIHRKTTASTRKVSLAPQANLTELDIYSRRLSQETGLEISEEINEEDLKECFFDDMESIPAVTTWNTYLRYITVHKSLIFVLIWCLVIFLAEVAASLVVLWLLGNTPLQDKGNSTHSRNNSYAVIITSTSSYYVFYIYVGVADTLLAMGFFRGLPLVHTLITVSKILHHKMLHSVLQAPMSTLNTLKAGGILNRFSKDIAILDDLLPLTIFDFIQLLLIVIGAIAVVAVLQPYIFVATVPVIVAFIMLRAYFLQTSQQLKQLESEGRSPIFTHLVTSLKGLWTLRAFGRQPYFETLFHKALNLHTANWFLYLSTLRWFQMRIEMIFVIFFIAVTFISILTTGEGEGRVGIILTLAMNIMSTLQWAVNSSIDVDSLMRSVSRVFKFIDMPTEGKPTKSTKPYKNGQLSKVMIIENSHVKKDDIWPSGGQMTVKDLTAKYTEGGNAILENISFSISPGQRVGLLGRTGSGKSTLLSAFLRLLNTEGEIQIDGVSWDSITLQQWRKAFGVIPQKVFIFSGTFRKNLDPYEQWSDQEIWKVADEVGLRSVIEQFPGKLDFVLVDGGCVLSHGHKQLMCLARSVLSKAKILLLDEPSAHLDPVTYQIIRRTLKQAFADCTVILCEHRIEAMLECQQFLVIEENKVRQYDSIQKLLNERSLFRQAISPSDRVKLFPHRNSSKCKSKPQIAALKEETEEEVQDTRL

`CC1(C)CC2CCCNc3cccc(n3)S(=N)(=O)NC(=O)c3ccc(-n4ccc(OCCC5(C(F)(F)F)CC5)n4)nc3N1C2` (stereo not drawn) [Compound 262, 2-imino-12,12-dimethyl-8-(3-{2-[1-(trifluoromethyl)cyclopropyl]ethoxy}-1H-pyrazol-1-yl)-2λ^6-thia-3,9,11,18,23-pentaazatetracyclo[17.3.1.111,14.05,10]tetracosa-1(23),5,7,9,19,21-hexaene-2,4-dione]: the pEC50 is > 6.00 and the “Max. Activity” value is given as “+++ (+++ is >60%)”.

`CC1(C)C[C@H]2CCCNc3cccc(n3)S(=O)(=O)NC(=O)c3ccc(-n4ccc(OCC5C6(CC6)C56CC6)n4)nc3N1C2` (single isomer, unassigned) [Compound 107, 8-[3-({dispiro[2.0.2.1]heptan-7-yl}methoxy)-1H-pyrazol-1-yl]-12,12-dimethyl-2λ^6-thia-3,9,11,18,23-pentaazatetracyclo[17.3.1.111,14.05,10]tetracosa-1(22),5,7,9,19(23),20-hexaene-2,2,4-trione]: the pEC50 is > 6.00 and the “Max. Activity” value is “+++ (+++ is >60%)”.

Turning to `Cc1cn2nc1S(=O)(=O)NC(=O)c1ccc(-n3ccc(OCCC(C4CC4)C4CC4)n3)nc1N1C[C@H](CCC2)CC1(C)C` (single isomer, unassigned) [Compound 201, 4-[3-(3,3-Dicyclopropylpropoxy)-1H-pyrazol-1-yl]-12,20,20-trimethyl-10λ^6-thia-1,3,9,14,22-pentaazatetracyclo[16.2.1.111,14.02,7]docosa-2(7),3,5,11(22),12-pentaene-8,10,10-trione], the pEC50 was < 5.52 and the “Max. Activity” value was “+ (+ is <30%)”.

In the case of `CC1(C)C[C@H]2CCCCc3cccc(n3)S(=O)(=O)NC(=O)c3ccc(-n4ccc(OCCC5(C(F)(F)F)CC5)n4)nc3N1C2` (single isomer, unassigned) [Compound 87, 12,12-dimethyl-8-(3-{2-[1-(trifluoromethyl)cyclopropyl]ethoxy}-1H-pyrazol-1-yl)-2λ^6-thia-3,9,11,23-tetraazatetracyclo[17.3.1.111,14.05,10]tetracosa-1(23),5,7,9,19,21-hexaene-2,2,4-trione], the pEC50 was > 6.00 and the “Max. Activity” value is reported as “+++ (+++ is >60%)”.

Consider `CC1(C)C[C@H]2CCCn3ccc(n3)S(=O)(=O)NC(=O)c3ccc(N4CC[C@H](OCCC5(C(F)(F)F)CC5)C4=O)nc3N1C2` (single isomer, unassigned) [Compound 192, 20,20-dimethyl-4-(2-oxo-3-{2-[1-(trifluoromethyl)cyclopropyl]ethoxy}pyrrolidin-1-yl)-10λ^6-thia-1,3,9,14,22-pentaazatetracyclo[16.2.1.111,14.02,7]docosa-2,4,6,11(22),12-pentaene-8,10,10-trione], for which the pEC50 is > 6.00 and the “Max. Activity” value is “+++ (+++ is >60%)”.

Regarding `CC1(C)C[C@H]2CCCn3ccc(n3)S(=O)(=O)NC(=O)c3ccc(-n4ccc(OCCCC5(C(F)(F)F)CC5)n4)nc3N1C2` (single isomer, unassigned) [Compound 166, 20,20-dimethyl-4-(3-{3-[1-(trifluoromethyl)cyclopropyl]propoxy}-1H-pyrazol-1-yl)-10λ^6-thia-1,3,9,14,22-pentaazatetracyclo[16.2.1.111,14.02,7]docosa-2(7),3,5,11(22),12-pentaene-8,10,10-trione], the pEC50 was > 6.00 and the “Max. Activity” value was “+++ (+++ is >60%)”.

Regarding `CC1(C)C[C@H]2CCCCOc3ccc(cn3)S(=O)(=O)NC(=O)c3ccc(-n4ccc(OCCC5(C(F)(F)F)CC5)n4)nc3N1C2` (single isomer, unassigned) [Compound 104, 12,12-dimethyl-8-(3-{2-[1-(trifluoromethyl)cyclopropyl]ethoxy}-1H-pyrazol-1-yl)-19-oxa-2λ^6-thia-3,9,11,21-tetraazatetracyclo[18.2.2.111,14.05,10]pentacosa-1(23),5,7,9,20(24),21-hexaene-2,2,4-trione], the pEC50 was < 5.52 and the “Max. Activity” value is given as “+ (+ is <30%)”.

Turning to `CC1(C)C[C@H]2CCNc3cccc(n3)S(=O)(=O)NC(=O)c3ccc(-n4ccc(OCC5(C(F)(F)F)CC5)n4)nc3N1C2` (single isomer, unassigned) [Compound 6, 7,7-dimethyl-11-(3-{[1-(trifluoromethyl)cyclopropyl]methoxy}-1H-pyrazol-1-yl)-17λ^6-thia-2,8,10,16,22-pentaazatetracyclo[16.3.1.1(5,8).0(9,14)]tricosa-1(21),9(14),10,12,18(22),19-hexaene-15,17,17-trione], the pEC50 is > 6.00 and the “Max. Activity” value is “+++ (+++ is >60%)”.

Take `CC1(C)C[C@@H]2CN1c1nc(-n3ccc(OCCC4(C(F)(F)F)CC4)n3)ccc1C(=O)NS(=O)(=O)c1ccn(n1)CCO2` (single isomer, unassigned) [Compound 302, 20,20-Dimethyl-4-(3-{2-[1-(trifluoromethyl)cyclopropyl]ethoxy}-1H-pyrazol-1-yl)-17-oxa-10λ^6-thia-1,3,9,14,22-pentaazatetracyclo[16.2.1.111,14.02,7]docosa-2(7),3,5,11(22),12-pentaene-8,10,10-trione]: the pEC50 was < 5.52 and the “Max. Activity” value is “+ (+ is <30%)”.

On to `CC(C)(C)COc1ccn(-c2ccc3c(n2)N2C[C@H](CCNc4cccc(n4)S(=O)(=O)NC3=O)CC2(C)C)n1` (single isomer, unassigned) [Compound 2, 11-[3-(2,2-dimethylpropoxy)-1H-pyrazol-1-yl]-7,7-dimethyl-17λ^6-thia-2,8,10,16,22-pentaazatetracyclo[16.3.1.15,8.09,14]tricosa-1(21),9(14),10,12,18(22),19-hexaene-15,17,17-trione], for which the pEC50 is 5.52 to 6.00 and the “Max. Activity” value is recorded as “+++ (+++ is >60%)”.

`CC1(C)CC[C@H]2CCCNc3cccc(n3)S(=O)(=O)NC(=O)c3ccc(-n4ccc(OCCC(C5CC5)C5CC5)n4)nc3N21` (single isomer, unassigned) [Compound 137, 8-[3-(3,3-Dicyclopropylpropoxy)-1H-pyrazol-1-yl]-12,12-dimethyl-2λ^6-thia-3,9,11,19,24-pentaazatetracyclo[18.3.1.05,10.011,15]tetracosa-1(23),5(10),6,8,20(24),21-hexaene-2,2,4-trione]: the negative logarithm of the EC50 (pEC50) was < 5.52 and the “Max. Activity” value is “+ (+ is <30%)”.

Turning to `CC1(C)C[C@@H]2CCCNc3cccc(n3)S(=O)(=O)NC(=O)c3ccc(N4CC[C@H](OCC56CC7CC(CC(C7)C5)C6)C4=O)nc3N1C2` (single isomer, unassigned) [Compound 245], the pEC50 was > 6.00 and the “Max. Activity” value is recorded as “+++ (+++ is >60%)”.

`CC1(C)C[C@@H]2CCCNc3cccc(n3)S(=O)(=O)NC(=O)c3ccc(N4CC[C@H](CCCC5(C(F)(F)F)CC5)C4=O)nc3N1C2` (single isomer, unassigned) [Compound 175]: the pEC50 is > 6.00 and the “Max. Activity” value is listed as “+++ (+++ is >60%)”.

For the compound `CC1(C)CCC2CNc3cccc(n3)S(=O)(=O)NC(=O)c3ccc(-n4ccc(OCCC5(C(F)(F)F)CC5)n4)nc3N21` (stereo not drawn) [Compound 41, 7,7-dimethyl-11-(3-{2-[1-(trifluoromethyl)cyclopropyl]ethoxy}-1H-pyrazol-1-yl)-17λ^6-thia-2,8,10,16,22-pentaazatetracyclo[16.3.1.04,8.09,14]docosa-1(22),9,11,13,18,20-hexaene-15,17,17-trione], the pEC50 was < 5.52 and the “Max. Activity” value is reported as “+ (+ is <30%)”.

On to `CN1CCC[C@H]2CCC(C)(C)N2c2nc(-n3ccc(OCCC4(C(F)(F)F)CC4)n3)ccc2C(=O)NS(=O)(=O)c2cccc1n2` [Compound 10, (15S)-12,12,19-trimethyl-8-(3-{2-[1-(trifluoromethyl)cyclopropyl]ethoxy}-1H-pyrazol-1-yl)-2λ^6-thia-3,9,11,19,24-pentaazatetracyclo[18.3.1.05,10.011,15]tetracosa-1(24),5(10),6,8,20,22-hexaene-2,2,4-trione], for which the pEC50 was < 5.52 and the “Max. Activity” value was “+ (+ is <30%)”.

`CC1(C)C[C@H]2CCCOc3cccc(n3)S(=O)(=O)NC(=O)c3ccc(-n4ccc(OCCC5(C(F)(F)F)CC5)n4)nc3N1C2` (single isomer, unassigned) [Compound 48, 12,12-dimethyl-8-(3-{2-[1-(trifluoromethyl)cyclopropyl]ethoxy}-1H-pyrazol-1-yl)-18-oxa-2λ^6-thia-3,9,11,23-tetraazatetracyclo[17.3.1.111,14.05,10]tetracosa-1(22),5,7,9,19(23),20-hexaene-2,2,4-trione]: the negative-log EC50 (pEC50) was < 5.52 and the “Max. Activity” value is on record as “+ (+ is <30%)”.

`C[C@@H]1CC[C@H]2CN(c3nc(-n4ccc(OCCC5(C(F)(F)F)CC5)n4)ccc3C(=O)NS(=O)(=O)c3cccc(n3)N1)C(C)(C)C2` (single isomer, unassigned) [Compound 60, 12,12,17-trimethyl-8-(3-{2-[1-(trifluoromethyl)cyclopropyl]ethoxy}-1H-pyrazol-1-yl)-2λ^6-thia-3,9,11,18,23-pentaazatetracyclo[17.3.1.111,14.05,10]tetracosa-1(23),5(10),6,8,19,21-hexaene-2,2,4-trione]: the pEC50 is > 6.00 and the “Max. Activity” value was “+++ (+++ is >60%)”.

Consider `CC1(C)C[C@H]2CCCn3cc(cn3)S(=O)(=O)NC(=O)c3ccc(-n4ccc(OCCC5(C(F)(F)F)CC5)n4)nc3N1C2` (single isomer, unassigned) [Compound 118, 20,20-Dimethyl-4-(3-{2-[1-(trifluoromethyl)cyclopropyl]ethoxy}-1H-pyrazol-1-yl)-10λ^6-thia-1,3,9,13,14-pentaazatetracyclo[16.2.1.111,14.02,7]docosa-2,4,6,11(22),12-pentaene-8,10,10-trione], for which the negative logarithm of the EC50 (pEC50) was 5.52 to 6.00 and the “Max. Activity” value is recorded as “+ (+ is <30%)”.
